Data: PMC7961996, “Small Immunomodulatory Molecules as Potential Therapeutics in Experimental Murine Models of Acute Lung Injury (ALI)/Acute Respiratory Distress Syndrome (ARDS)” (International Journal of Molecular Sciences, 2021)

Experiments:
[1] = test system: hyperoxia-induced ALI mice; test: Hyperoxia-induced ALI murine model; assay type: in vivo, C57BL6/J mice
Description: For the mouse efficacy studies, both AVR-25 and AVR-48 were reconstituted in 0.9% sterile normal saline to give a final concentration of 10 mg/kg; 125 µL was administered intraperitoneally (IP) for hyperoxia- and LPS- induced lung injury, and IV via the lateral tail vein for CLP-induced lung injury. Imipenem (Primaxin®) was formulated in sterile 0.9% saline solution and administered subcutaneously (SC) at a dose of 5 mg/kg to mice in a 0.2 mL volume near the dorsal scapular region for CLP-induced lung injury study. LPS was dissolved in sterile 0.9% saline solution and 100 µL was administered intratracheally for the ALI study.
Three models of ALI were used in the current study: hyperoxia-, LPS-, and CLP-induced lung injury: LPS-induced ALI was induced by administering a one-time intratracheal instillation of LPS (100 µg in a volume of 100 µL). Animals were sacrificed after 24 h following LPS administration while two doses of AVR-25 and AVR-48 were administered (10 mg/kg, IP) at 4 h and 12 h following LPS dosing. Hyperoxia-induced ALI was initiated by keeping the mice in cages in airtight polypropylene chamber exposed to hyperoxia (100% oxygen) for 48 h, following a standard protocol. Two doses of AVR-25 and AVR-48 were administered (10 mg/kg, IP) at 4 h and 12 h following hyperoxia exposure, and mice were sacrificed after 48 h.
At the end of the experimental time points for all the above groups, the mice were euthanized with an overdose of a cocktail of xylazine (100 mg/kg)/ketamine (10 mg/kg, IP) and BALF and lung tissues were harvested for further analysis. Male mice were used for all the ALI experiments.
BALF was obtained from the anesthetized mice by cannulating the upper part of the trachea with a blunt 22-gauge needle and then by lavaging three times with 1.0 mL of cold PBS (pH 7.4). The fluid recovery rate was about 90%. Lavaged samples were kept on ice, and the BALF was centrifuged at 4 °C. Total cell counts in BALF were determined using the TC20 automated cell counter (Bio-Rad Laboratories, Inc., Hercules, CA, USA). The differential cell counts were performed on cytospin preparations after staining with the Hema 3 differential Staining kit (Fisher Scientific, Kalamazoo, MI, USA). Total protein concentration in the BALF was measured using the Pierce^TM BCA assay kit (Fisher Scientific Co, Houston, TX, USA), as previously described.
Lung endothelium permeability was determined by measuring the accumulation of Evans blue in the lungs, as previously described. In brief, Evans blue dye (EBD) solution (Sigma-Aldrich, Inc., St. Louis, MO, USA, 5 mg/mL) was injected into the tail vein at a concentration of 50 mg/kg before 30 min of the experimental time point. At the experimental time points, lungs were excised and weighed. EBD was extracted in 2 mL formamide kept in a water bath at 60 °C for 3 h, and the samples were centrifuged at 500 g for 10 min. The absorption of light at 595 nm was measured spectrophotometrically (Microplate reader, Bio-Rad Laboratories, Hercules, CA, USA) with the supernatants.
Interleukin (IL)-6, IL-1β, and IL-10 were quantified on BALF while E-selectin was quantified in lung homogenate using commercially available DuoSet® ELISA kits (R&D Systems, Minneapolis, MN, USA) according to the manufacturer’s instructions, as previously described. Briefly, Nalgene Nunc Maxisorp™ plates were coated overnight with antibodies to IL-6 (2 µg/mL), IL-1β (2 µg/mL) IL-10 (2 µg/mL), or E-selectin (2 µg/mL) and the following morning plates were washed and blocked for 2 h. Samples were added to the wells at various dilutions and then incubated with detection antibody for 2 h. Plates were subsequently washed, and streptavidin-HRP conjugate antibody was added to each well for 20 min. […]

[2] = Toxicology study of AVR-48, IV dose escalation and repeat dose phases; assay type: in vivo, Sprague Dawley rats
Description: For the PK study of AVR-48 in rats, a formulation consisting of 10% DMSO, 20% tetraglycol, 20% PEG 400, and 50% sterile water was developed. Each preparation was made on the same day of dose administration. The components of the control/vehicle item formulation were added sequentially. Briefly, the appropriate volume of DMSO (10% of the final volume) was measured into a container followed by gradual addition of PEG 400 (20% of the final volume) and sterile water (50% of the final volume) to make up the volume and mixed thoroughly till completely dissolved. The final solution was filtered through a 0.22 µm membrane filter (Millipore Millex® GP PES, St. Louis, MO, USA) into a sterile vial.
The toxicology study of AVR-48 was performed with both 8–10 week old male and female Sprague Dawley rats, in two phases following standard FDA guidance [M3(R2)R]. AVR-48 was injected IV at a volume of 5 mL/kg of body weight after reconstituting in 10% DMSO, 20% tetraglycol, and 20% PEG 400 in sterile water. In the dose escalation phase, 75 to 100 mg/kg per day was administered as two separate doses approximately 6–7 h apart by IV slow bolus injection at a volume of 5 mL/kg of body weight. Three animals of each sex were dosed at each dose level. During the repeat dose phase, daily doses of 0, 40, and 80 mg/kg/day were administered as two divided doses delivered by slow bolus injection at a volume of 5 mL/kg of body weight approximately 6–7 h apart. Study animals (n = 5/sex/dose) were treated for three days with a total of six doses for AVR-48. Twelve to eighteen hours after the last dose was administered, animals were euthanized and blood collected for analysis of clinical chemistry and other hematological parameters. Detailed necropsy examinations were performed on each animal, and tissues were collected and fixed with standard fixatives for histological analysis and interpretation.

[3] = 10 mg/kg IP at 4 h and 12 h of hyperoxia (100% oxygen), 48 h

Which results are given for CC(=O)N[C@H]1[C@H](Oc2ccc([N+](=O)[O-])cc2)O[C@H](CO)[C@@H](O)[C@@H]1O [AVR-48, N-((2S,3R,4R,5S,6R)-4,5-dihydroxy-6-(hydroxymethyl)-2-(4-nitrophenoxy)tetrahydro-2H-pyran-3-yl) acetamide]?
neutrophils infiltration into the lung (BALF) [1, 3]: diminished; total immune cells infiltration into the lung (BALF) [1, 3]: diminished; Evans Blue dye leak concentration in the lungs ([1]; 10 mg/kg IP x2): diminished levels; expression of lung adhesion molecules ICAM-1, VCAM-1, and E-selectin in whole lung tissue ([1]; 10 mg/kg IP x2): decreased expression; total proteins in BALF (pulmonary edema) ([1]; 10 mg/kg IP x2): diminished levels; levels of pro-inflammatory cytokines (IL-1β, IL-6) in BALF and lung tissues ([1]; 10 mg/kg IP x2, 48 h, vs untreated ALI mice): decreased levels; lung injury (H&E, injury score) ([1]; 10 mg/kg IP x2, 0-4 scoring): improved lung injury; IL-10 levels in BALF ([1]; 10 mg/kg IP x2, ELISA, vs non-treated ALI mice): further increase; expression of cleaved caspase-3 in lungs (lung cell death) ([1]; 10 mg/kg IP x2, Western blot): reduced expression; expression of endothelial AJ proteins VE-cadherin and β-catenin in whole lungs ([1]; 10 mg/kg IP x2, Western blot): increased expression; expression of phosphorylated-Src in whole lungs ([1]; 10 mg/kg IP x2, Western blot): decreased expression; tolerability, repeat administration ([2]; 40 and 80 mg/kg/day as two daily doses of 20 and 40 mg/kg for three consecutive days, IV): well tolerated with no adverse clinical signs; hematology and clinical chemistry parameters ([2]; IV for three consecutive days, up to 80 mg/kg/day): no changes in any of the hematology or clinical chemistry parameters; MTD at 3 days ([2]; both sexes, Sprague Dawley, rat, in vivo, IV, two daily doses for three consecutive days, male and female rats): 80 mg/kg/day; NOAEL at 3 days ([2]; both sexes, Sprague Dawley, rat, in vivo, IV, two daily doses for three consecutive days, male and female rats, read-out: no observable adverse effect level (NOAEL)): 80 mg/kg/day; adverse signs ([2]; dose escalation, 75 mg/kg/day IV): No adverse signs were observed; mortality ([2]; dose escalation, 100 mg/kg total daily dose IV): A single animal that received a total daily dose of 100 mg/kg died; clinical signs ([2]; dose escalation, 100 mg/kg total daily dose, two IV bolus 6-7 h apart): clinical signs of hypoactivity, respiratory changes, changes in posture, and loss of motor coordination were observed; therapeutic window over the efficacious dose ([2]; rat MTD/NOAEL vs 10 mg/kg efficacious dose in mouse): ~8 fold; systemic gross observations at necropsy ([2]; repeat dose IV): no evidence of any AVR-48 related systemic gross observations at necropsy
